Where two headings read alike, the source gives them in different places.
How the values were obtained:
Alternaria alternata [1] = test: In vitro poisoned food technique against fungus (Ex. 20); format: cell-based; conditions: poisoned food technique, PDA medium, dose 1 ml/gm/lit., after seven days
Alternaria alternata [2] = test: Alternaria leaf spot/blight on inoculated tomato plants (Ex. 28); format: in vivo; conditions: tomato plants, Alternaria alternata; after 7 days; dose 1 ml/gm/lit
tomato seedlings = test: Response of tomato plants, greenhouse growth (Ex. 30); format: in vivo; conditions: tomato seedlings, dose 1 ml/gm/lit
chili seedlings = test: Response of chili plants, greenhouse growth (Ex. 31); format: in vivo; conditions: chili seedlings, dose 1 ml/gm/lit
Aphid [3] = conditions: Dose 1 ml/gm/lit.
Mite [4] = conditions: Dose 1 ml/gm/lit.
Mealy Bug [5] = conditions: Mealy Bug on cotton leaves, dose 1 ml/gm/lit., 48 Hrs.
Helicoverpa armigera [6] = conditions: Helicoverpa armigera on okra fruits, dose 1 ml/gm/lit., 72 Hrs.
Spodoptera litura [7] = conditions: Spodoptera litura on castor leaves, dose 1 ml/gm/lit.
Thrips [8] = conditions: Thrips on cotton leaves, dose 1 ml/gm/lit.
Aphid [9] = conditions: Aphids on cotton plants, green house, dose 1 ml/gm/lit.
Mite [10] = conditions: mite on okra plants, green house, dose 1 ml/gm/lit. spray
Mealy Bug [11] = conditions: mealy bug on cotton plants, green house, dose 1 ml/gm/lit. spray
Helicoverpa armigera [12] = conditions: Helicoverpa armigera 3rd instar on chickpea plants, dose 1 ml/gm/lit. spray
Spodoptera litura [13] = conditions: Spodoptera litura 3rd instar on cabbage plants, dose 1 ml/gm/lit. spray
Thrips [14] = conditions: thrips on cotton plants, greenhouse, dose 1 ml/gm/lit. spray
[15] = cited from earlier work
[16] = 10 insects/treatment, 4 replications
[17] = 72 hrs, corrected for water control
[18] = 48 hrs, corrected for water control
[19] = Table 13, descriptive, no test described

Substance: Berberine
- Mean colony Diameter (mm) (Alternaria alternata [1]): 45.50 mm
- % Inhibition of growth (Alternaria alternata [1]; vs untreated control): 48.30%
- % Disease reduction over Control (Alternaria alternata [2]): 52.89%
- Plant Height 5th Day (tomato seedlings; 5th day after application): 6.78 cm
- Stem Girth 5th Day (tomato seedlings; 5th day after application): 2.01 mm
- Plant Height 10th Day (tomato seedlings; 10th day after application): 7.34 cm
- Stem Girth 10th Day (tomato seedlings; 10th day after application): 2.25 mm
- Plant Height % Increase over pre on 10th Day (tomato seedlings; 10th day): 29.91%
- Stem Girth % Increase over pre on 10th Day (tomato seedlings; 10th day): 54.11%
- Plant Height Pre (tomato seedlings; before application): 5.65 cm
- Stem Girth Pre (tomato seedlings; before application): 1.46 mm
- CCI 5th Day (tomato seedlings; 5th day after application): 14.53
- CCI % Increase over pre on 10th Day (tomato seedlings; 10th day): 24.86%
- Root Length (cm) 10th Day (tomato seedlings; 10th day): 4.13 cm
- CCI 10th Day (tomato seedlings; 10th day after application): 15.67
- Root Length % Increase over control (tomato seedlings; 10th day, vs water control): 24.12%
- CCI Pre (tomato seedlings; pre-application baseline): 12.55
- CCI 5th Day (chili seedlings; 5th day after application): 13.04
- Plant Height (cm) 5th Day (chili seedlings; 5th day after application): 6.15 cm
- CCI % Increase over pre on 10th Day (chili seedlings; 10th day): 36.98%
- Plant Height % Increase over pre on 10th Day (chili seedlings; 10th day): 50.11%
- Root Lenght (cm) 10th Day (chili seedlings; 10th day): 3.11 cm
- Stem Girth % Increase over pre on 10th Day (chili seedlings; 10th day): 40.15%
- CCI 10th Day (chili seedlings; 10th day after application): 14.04
- Plant Height (cm) 10th Day (chili seedlings; 10th day after application): 6.89 cm
- Root Lenght % Increase over control (chili seedlings; 10th day, vs water control): 13.75%
- CCI Pre (chili seedlings; pre-application baseline): 10.25
- Plant Height (cm) Pre (chili seedlings; pre-application baseline): 4.59 cm
- Total No. of dead insect at 48 Hrs. (Aphid [3]; 10 insects/treatment, 4 replications, cotton leaves): 5.25
- % Corrected Mortality at 48 Hrs. (Aphid [3]; 48 hrs): 45.71%
- % Mortality at 48 Hrs. (Aphid [3]; 48 hrs): 52.50%
- Total No. of dead insect at 48 Hrs. (Mite [4]; 10 insects/treatment, 4 replications, okra leaves): 4.75
- % Corrected Mortality at 48 Hrs. (Mite [4]; 48 hrs): 43.24%
- % Mortality at 48 Hrs. (Mite [4]; 48 hrs): 47.50%
- Total No. of dead insect at 48 Hrs. (Mealy Bug [5]; [16]): 7.50
- % Mortality at 48 Hrs. (Mealy Bug [5]): 75.00%
- % Corrected Mortality at 48 Hrs. (Mealy Bug [5]; corrected for water control): 73.68%
- Total No. of dead insect at 72 Hrs. (Helicoverpa armigera [6]; [16]): 6.50
- % Mortality at 72 Hrs. (Helicoverpa armigera [6]): 65.00%
- % Corrected Mortality at 72 Hrs. (Helicoverpa armigera [6]; corrected for water control): 65.00%
- Total No. of dead insect at 72 Hrs. (Spodoptera litura [7]; 10 insects/treatment, 72 hrs after application): 7.00
- % Mortality at 72 Hrs. (Spodoptera litura [7]; 72 hrs after application): 70.00%
- % Corrected Mortality at 72 Hrs. (Spodoptera litura [7]; [17]): 68.42%
- Total No. of dead insect at 48 Hrs. (Thrips [8]; 10 insects/treatment, 48 hrs after application): 6.50
- % Mortality at 48 Hrs. (Thrips [8]; 48 hrs after application): 65.00%
- % Corrected Mortality at 48 Hrs. (Thrips [8]; [18]): 60.00%
- Total No. of dead insect at 48 Hrs. (Aphid [9]; 10 insects/plant, 10 plants/treatment, 48 hrs): 55.00
- % Mortality at 48 Hrs. (Aphid [9]; 48 hrs after application): 55.00%
- % Corrected Mortality at 48 Hrs. (Aphid [9]; [18]): 47.06%
- % Mortality at 48 Hrs. (Mite [10]; 48 hrs after application): 45.00%
- Total No. of dead insect at 48 Hrs. (Mite [10]; 48 hrs after application): 45.00
- % Corrected Mortality at 48 Hrs. (Mite [10]; [18]): 42.11%
- % Mortality at 48 Hrs. (Mealy Bug [11]; 48 hrs after application): 70.00%
- Total No. of dead insect at 48 Hrs. (Mealy Bug [11]; 48 hrs after application): 70.00
- % Corrected Mortality at 48 Hrs. (Mealy Bug [11]; [18]): 66.67%
- % Mortality at 72 Hrs. (Helicoverpa armigera [12]; 72 hrs after application): 62.50%
- % Corrected Mortality at 72 Hrs. (Helicoverpa armigera [12]; [17]): 62.50%
- % Mortality at 72 Hrs. (Spodoptera litura [13]; 72 hrs after application): 67.50%
- % Corrected Mortality at 72 Hrs. (Spodoptera litura [13]; [17]): 65.79%
- % Mortality at 48 Hrs. (Thrips [14]; 48 hrs after application): 67.50%
- Total No. of dead insect at 48 Hrs. (Thrips [14]; 48 hrs after application): 67.50
- % Corrected Mortality at 48 Hrs. (Thrips [14]; [18]): 63.89%
- Antifungal Activity - Mode of action [15, 19]: Inhibit multipath mechanisms,
- Antioxidant Activity - Mode of action [15, 19]: Reducing Oxidative Stress
- Bactericidal Activity - Mode of action [15, 19]: Resulting in DNA damage,
- Insecticidal Activities - Mode of action [15, 19]: Disturbed moulting, larval-
- Nematicidal Activity - Mode of action [15, 19]: Effective against root knot
- Phytotonic Effect ([15]; Table 13, effect on plants, descriptive): Boost
